Data as given in patent US20260232808A1, “Dicarboxylic Acid Concentrates” (Vantage Specialty Ingredients, Inc., priority 2023, published 2026).
Entries after “also recorded” stand apart in the source; their conditions may differ.

How the values were obtained:
Caspase-1 (CASP-1) = test: ELISA for Caspase-1 in culture media of EpiDermFT tissue inoculated with C. acnes; assay type: cell-based, human; settings: C. acnes ATCC 11827 48 hours, 24-hour treatment
Method: (§1) EpiDermFT (EFT-400, MatTek Europe, Bratislava Slovak Republic) is a multilayered reconstituted model of the human dermis and epidermis, formed by culturing normal, human epidermal keratinocytes (NHEK) and normal, human dermal fibroblasts (NHFB). […] The dermal compartment is composed of a collagen matrix containing viable normal human dermal fibroblasts (NHDF). […] Testing was conducted on EpiDermFT in 12-well plates filled with culture medium without antibiotics at 37° C., 5% CO2, saturated humidity (90% RH). Inoculum-6 μL of lipid mix (olive oil and neutral triacylglycerol mixed 1:1) and 60 μL of C. acnes ATCC 11827, 10^7-10^8 CFU/mL-was applied to EpiDerm tissue for 48 hours. […] At the end of the treatment period, culture media was collected and stored at -20° C. for subsequent analysis by ELISA immunoassay for two inflammatory markers TNF-α and C[…] using commercially-available test kits-QuantikineTM ELISA Human Caspase-1/ICE Immunoassay and Human TNF-α Immunoassay both from R&D Systems, Inc. (Minneapolis, MN), Catalog Number DCA100 and DTAOOD, respectively.

[1] = test system: Tumor Necrosis Factor-alpha (TNF-α); test: ELISA for TNF-α in culture media of EpiDermFT tissue inoculated with C. acnes; assay type: cell-based, human; settings: C. acnes ATCC 11827 48 hours, 24-hour treatment
Method: as §1

[2] = cited from earlier work
[3] = ethanol / ethyl alcohol, normal temperatures; cited from earlier work

CASP-1 inflammatory response versus the C. acnes treated control (Caspase-1 (CASP-1)) | Compound | TNF-α inflammatory response versus the C. acnes treated control [1] | solvent quality for azelaic acid ([2]; isopropanol) | maximum azelaic acid dissolved in water ([2]; water) | stability of azelaic acid in ethanol [3]
increased inflammatory response | O=C(O)c1ccccc1O [Group 1, salicylic acid] | increased inflammatory response |  |  | 
 | O=C(O)CCCCCCCC(=O)O [azelaic acid, Azelaic acid] |  | good | ≤ 0.24 % by weight (w/w) | unstable; also recorded: instability
